Earlier results, collected in publication PMC9008720 (Biomedical chromatography : BMC, 2022).

Test system: GBM tumor
Conditions: ref Zalcman et al., 2018

## CNC(=O)c1ccc(N2C(=S)N(c3ccc(C#N)c(C(F)(F)F)c3)C(=O)C2(C)C)cc1F [enzalutamide]
  GBM tumor growth in nude mice: reduced the GBM tumor growth
